Common to all, as to assay type: physicochemical
The nature of data set [1]: Developed color of polymer plate under xenon light (color density, maximum absorption wavelength). To be noted: for Color density: 0.04 parts in polymer plate; for λ max: state of developing color, polymer plate. From the text: (§1) 0.04 Parts of fulgimide compounds shown in Table 3, 70 parts of tetraethyleneglycol dimethacrylate, 15 parts of triethyleneglycol dimethacrylate, 10 parts of glycidyl methacrylate, 5 parts of 2-hydroethylmethacrylate and 1 part of perbutyl ND as a polymerization catalyst, were sufficiently mixed together until they were completely dissolved. The mixture solution was poured into a mold constituted by a glass plate and a gasket of an ethylene/vinyl acetate copolymer, and its temperature was elevated in an air oven from 35° C. to 90° C. over a period of 20 hours to effect the polymerization. After the polymerization, the polymer was taken out from the glass mold.
(§2) The obtained polymer plate was irradiated with xenon light by using a Xenon Long-Life Fade Meter FAL-25AX-HC (output: 2.5 KW, source of light: xenon long-life arc lamp) manufactured by Suga Shikenki Co., in order to measure a maximum absorption wavelength in a state of developing color. The initial color tone was observed by eyes, and YI of the samples was measured by using a color-difference meter (Model SM-4) manufactured by Suga Shikenki Co. The wear life (T 1/2) was also measured in compliance with JIS L0843 and JIS B7754. T 1/2 is defined to be the time until the color density decreases down to one-half the initial value when the polymer plate is irradiated with light by using the fade meter.
(§3) For the purpose of comparison, the fulgimide compounds represented by the following formulas (A) to (I) were also used to prepare polymer plates to measure their properties in the same procedure as described above. [drawing 113]

Data set [2] can be described thus: Wear life (T 1/2) of polymer plate in xenon fade meter, JIS L0843 and JIS B7754. To be noted: time until color density decreases to one-half the initial value.
Source text: as §1, §2, §3

A short description of data set [3]: Initial color of polymer plate (visual observation, YI by color-difference meter). To be noted: for Initial color, visually observed: before irradiation; for Initial color, YI: color-difference meter SM-4.
Source text: as §1, §2, §3

Consider 18 molecules from US5631382A, “Fulgimide compound” (Tokuyama Corporation, priority 1994, dated 1997).

In data set [1], `O=C1C2=C(c3ccccc3)c3c(oc4ccccc34)C3(C4CCC3CC4)C2C(=O)N1C(Cl)(Cl)Cl` (stereo not drawn) [Compound 21] came in with a Color density of 0.95 and a λ max of 540 nm. The molecule also registered a T1/2 in data set [2] of 115 h. Moreover, in data set [3], the “Initial color, visually observed” value is “colorless” and the “Initial color, YI” value is 2.95.
For `CC(=O)N1C(=O)C2=C(C3CC3)c3c(sc4c3CCCC4)C3(C4CCC3CC4)C2C1=O` (stereo not drawn) [Compound 23] the same measures were 0.87, 600 nm, 140 h, “colorless” and 2.36.
For `CCCC1=C2C(=O)N(C(Cl)(Cl)Cl)C(=O)C2C2(c3oc4c(c31)CCCC4)C1CCC2CC1` (stereo not drawn) [Compound 24] the same measures were 0.94, 576 nm, 140 h, “colorless” and 2.45.
For `CC1=C2C(=O)N(S(=O)(=O)c3cc(Cl)cc(Cl)c3)C(=O)C2C2(c3c1c1c(n3-c3ccccc3)CCCC1)C1CCC2CC1` (stereo not drawn) [Compound 25] the same measures were 0.71, 619 nm, 100 h, “colorless” and 3.26.
With `COc1c(C)sc2c1C1(C3CC4CC(C3)CC1C4)C1C(=O)N(C(=O)Oc3ccccc3)C(=O)C1=C2C` (stereo not drawn) [Compound 26], in data set [1], the Color density amounted to 0.54 and the λ max came to 546 nm. In data set [2], the T1/2 was determined as 120 h. In data set [3], the “Initial color, visually observed” value is on record as “colorless” and the “Initial color, YI” value came to 3.84.
With `CCC1=C2C(=O)N(S(=O)(=O)O)C(=O)C2C2(c3c(OC)cc(OC)cc31)C1CC3CC(C1)CC2C3` (stereo not drawn) [Compound 27], in data set [1], the Color density turned out to be 0.68 and the λ max is 568 nm. In data set [2], the T1/2 is 100 h. Besides, in data set [3], the “Initial color, visually observed” value is “pale yellow” and the “Initial color, YI” value came out at 4.68.
For `CC1=C2C(=O)N(C#N)C(=O)C2C2(c3sccc31)C1CC3CC(C1)CC2C3` (stereo not drawn) [Compound 28] the same measures were 0.56, 604 nm, 270 h, “colorless” and 2.06.
For `N#CN1C(=O)C2=C(C3CC3)c3ccoc3C3(C4CC5CC(C4)CC3C5)C2C1=O` (stereo not drawn) [Compound 29] the same measures were 0.98, 600 nm, 385 h, “colorless” and 2.01.
For `COc1cc(OC)c2c(c1)C(C)=C1C(=O)N(C#N)C(=O)C1C21C2CC3CC(C2)CC1C3` (stereo not drawn) [Compound 30] the same measures were 0.73, 590 nm, 210 h, “colorless” and 2.21.
In data set [1], `CC1=C2C(=O)N(C#N)C(=O)C2C2(c3occc31)C1CC3CC(C1)CC2C3` (stereo not drawn) [Compound 31] returned a Color density of 0.65 and a λ max of 580 nm. Besides, in data set [2], the T1/2 amounted to 265 h. In data set [3], the “Initial color, visually observed” value is “colorless” and the “Initial color, YI” value is recorded as 2.00.
For `CC(=O)N1C(=O)C2=C(C)c3ccsc3C3(C4CC5CC(C4)CC3C5)C2C1=O` (stereo not drawn) [Compound 32] the same measures were 0.70, 550 nm, 105 h, “colorless” and 2.11.
For `CC1=C2C(=O)N(C(=O)c3ccccc3)C(=O)C2C2(c3occc31)C1CC3CC(C1)CC2C3` (stereo not drawn) [Compound 33] the same measures were 0.58, 550 nm, 100 h, “colorless” and 2.16.
For `CC1=C2C(=O)N(CC#N)C(=O)C2C2(c3sc(-c4ccccc4)cc31)C1CC3CC(C1)CC2C3` (stereo not drawn) [D, reference compound] the same measures were 0.82, 570 nm, 90 h, “yellow” and 10.75.
In data set [1], `COc1ccc(-c2cc3c(s2)C2(C4CC5CC(C4)CC2C5)C2C(=O)N(CC#N)C(=O)C2=C3C)cc1` (stereo not drawn) [E, reference compound] registered a Color density of 0.90 and a λ max of 580 nm. The T1/2 in data set [2] came out at 90 h. Also, in data set [3], the “Initial color, visually observed” value is given as “yellow” and the “Initial color, YI” value was 18.21.
For `CCN1C(=O)C2=C(C)c3cc(-c4ccc(OC)cc4)n(-c4ccccc4)c3C3(C4CC5CC(C4)CC3C5)C2C1=O` (stereo not drawn) [F, reference compound] the same measures were 0.75, 600 nm, 80 h, “yellow” and 19.23.
In data set [1], `CCN1C(=O)C2=C(C)c3cc(-c4ccc(OC)cc4)n(C)c3C3(C4CC5CC(C4)CC3C5)C2C1=O` (stereo not drawn) [G, reference compound] had a Color density of 0.88 and a λ max of 610 nm. Further, the T1/2 in data set [2] is 85 h. Further, in data set [3], the “Initial color, visually observed” value is “yellow” and the “Initial color, YI” value turned out to be 19.56.
For `CCOC(=O)CN1C(=O)C2=C(C)c3cc(-c4ccc(OC)cc4)n(C)c3C3(C4CC5CC(C4)CC3C5)C2C1=O` (stereo not drawn) [H, reference compound] the same measures were 0.78, 620 nm, 80 h, “yellow” and 19.52.
For `COc1ccc(-c2cc3c(n2C)C2(C4CC5CC(C4)CC2C5)C2C(=O)N(CC#N)C(=O)C2=C3C)cc1` (stereo not drawn) [I, reference compound] the same measures were 0.73, 630 nm, 80 h, “yellow” and 18.89.
